Assay results reported in US20230227492A1 (priority 2020, published 2023).
Like-named read-outs stand apart in the source and are kept apart here.

Tests used:
[1] = Liver S9 Fraction Stability Assay
[2] = target: T1, human PR ligand-binding domain tagged with GST [PR-LBD (GST)] (Homo sapiens, UniProt P06401); test: PR fluorescence polarization (FP) binding assay; details: Fluormone PL Green
T1 construct: purchased Life Technologies (Carlsbad, Calif.)
T1 sequence (P06401 679-913 limits assumed): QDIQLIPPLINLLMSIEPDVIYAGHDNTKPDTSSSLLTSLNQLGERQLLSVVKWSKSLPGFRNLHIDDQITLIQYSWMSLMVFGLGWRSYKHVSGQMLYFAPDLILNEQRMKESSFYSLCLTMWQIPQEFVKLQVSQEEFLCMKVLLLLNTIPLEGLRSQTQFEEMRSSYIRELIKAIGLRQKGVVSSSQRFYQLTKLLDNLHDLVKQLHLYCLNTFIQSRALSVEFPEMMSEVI
Procedure: (§1) Receptor Binding Assay Information—In certain of the following examples, hormone receptor binding assays were used to determine the receptor binding activities of monomeric compound embodiments to androgen (AR), progesterone (PR), estrogen alpha (ERα) or glucocorticoid (GR) receptors. For AR, PR or ERα, the respective receptors are added to novel, tight-binding, selective ligands tagged with a fluorescent molecule, to form a receptor-ligand complex with a high polarization value. This complex is then added to individual monomeric compound embodiments that are contained in well plates. If the monomeric compound binds to the respective receptors, it displaces the fluorescent ligand from the complex, resulting in a low polarization value. In such embodiments, the monomeric compound is characterized as a competitor. […] In such embodiments, the monomeric compound is characterized as a noncompetitor. The shift in polarization value in the presence of the monomeric compound is used to determine the relative affinity of monomeric compound for the receptor.
(§2) For the androgen, progesterone, and estrogen receptor binding assays described herein, the preparation of reagents and test procedures is performed according to the manufacturer's instructions (Life Technologies, Carlsbad, Calif.). The plates are covered to protect the reagents from light and incubated at 20-25° C. for 4-8 hrs. The fluorescence polarization of the samples is measured with 485 nm excitation and 530 nm emission interference filters.
In this example, PR binding activity was assessed using the PR fluorescence polarization (FP) assay, which provides a sensitive and efficient method for high-throughput screening of potential PR ligands. The kit uses human PR ligand-binding domain tagged with GST [PR-LBD (GST)], and a tight-binding, selective fluorescent progesterone ligand (Fluormone™ PL Green) in a homogenous mix-and-read assay format. Progesterone receptor [PR-LBD (GST)] was added to a fluorescent progesterone ligand (Fluormone™ PL Green) to form a PR-LBD (GST)/Fluormone™ PL Green complex resulting in a high polarization value. This complex was then added to individual compound embodiments in 96-well plates. Competitors displaced the fluorescent Fluormone™ PL Green ligand from the PR-LBD (GST)/Fluormone™ PL Green complex, causing the fluorescent ligand to tumble rapidly during its fluorescence lifetime, resulting in a low polarization value. […] The shift in polarization value in the presence of compound embodiments was used to determine relative affinity of compound embodiments for PR-LBD (GST). The fluorescence polarization of the samples was measured with 485 nm excitation and 530 nm emission interference filters. Results for monomeric compound embodiments wherein the R^2 groups is not present (such as to test compound activity after R^2 cleavage) are provided in Table 4.

[3] = target: T2, recombinant human aromatase (Homo sapiens, UniProt P11511); test: Aromatization by recombinant human aromatase (CYP19+P450 reductase Supersomes); details: 10 μM, 37° C.
T2 sequence (P11511 1-503): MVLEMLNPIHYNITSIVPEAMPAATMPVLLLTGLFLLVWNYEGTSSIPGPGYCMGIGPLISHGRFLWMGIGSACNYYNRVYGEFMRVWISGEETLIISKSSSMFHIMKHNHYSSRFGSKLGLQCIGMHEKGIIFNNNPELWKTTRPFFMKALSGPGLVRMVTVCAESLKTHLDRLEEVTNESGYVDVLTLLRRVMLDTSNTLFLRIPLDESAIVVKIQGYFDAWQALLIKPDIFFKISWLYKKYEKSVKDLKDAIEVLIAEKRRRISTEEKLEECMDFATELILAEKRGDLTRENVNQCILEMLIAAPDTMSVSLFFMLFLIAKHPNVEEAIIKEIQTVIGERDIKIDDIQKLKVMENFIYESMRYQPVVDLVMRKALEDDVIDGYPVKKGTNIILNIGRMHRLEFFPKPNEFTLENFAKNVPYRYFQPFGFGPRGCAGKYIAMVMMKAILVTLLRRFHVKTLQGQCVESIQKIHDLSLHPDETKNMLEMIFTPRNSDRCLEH

[4] = target: T3, full-length, untagged, human estrogen receptors (ERα) (Homo sapiens, UniProt P03372); test: ERα fluorescence polarization (FP) binding assay
T3 construct: insect cell-expressed, full-length, untagged, human estrogen receptors; purchased Life Technologies (Carlsbad, Calif.); host or cells: insect cells
Procedure: as §1
as §2, with “hrs.” for “hrs. The fluorescence polarization of the samples is measured with 485 nm excitation and 530 nm emission interference filters.”
For ERα data, the ERα fluorescence polarization (FP) assay was used, which provides a sensitive and efficient method for high-throughput screening of potential ER ligands. The kit uses insect cell-expressed, full-length, untagged, human estrogen receptors and a tight-binding, fluorescent estrogen ligand (Fluormone™ ES2) in a homogenous mix-and-read assay format. ERα was added to a fluorescent estrogen ligand to form an ERα/Fluormone™ ES2 complex. This complex was then added to individual compound embodiments contained in 96-well plates. […] The change in polarization value in the presence of a compound embodiment was used to determine relative affinity of a compound embodiment for ERα.

castrated weanling rats = details: rat, in vivo
[5] = human liver S9, W/O NADPH, 1 μM
[6] = human liver S9, W/O NADPH, 10 μM
[7] = human liver S9, With NADPH, 1 μM
[8] = human liver S9, With NADPH, 10 μM

T3 sequence (P03372 whole entry): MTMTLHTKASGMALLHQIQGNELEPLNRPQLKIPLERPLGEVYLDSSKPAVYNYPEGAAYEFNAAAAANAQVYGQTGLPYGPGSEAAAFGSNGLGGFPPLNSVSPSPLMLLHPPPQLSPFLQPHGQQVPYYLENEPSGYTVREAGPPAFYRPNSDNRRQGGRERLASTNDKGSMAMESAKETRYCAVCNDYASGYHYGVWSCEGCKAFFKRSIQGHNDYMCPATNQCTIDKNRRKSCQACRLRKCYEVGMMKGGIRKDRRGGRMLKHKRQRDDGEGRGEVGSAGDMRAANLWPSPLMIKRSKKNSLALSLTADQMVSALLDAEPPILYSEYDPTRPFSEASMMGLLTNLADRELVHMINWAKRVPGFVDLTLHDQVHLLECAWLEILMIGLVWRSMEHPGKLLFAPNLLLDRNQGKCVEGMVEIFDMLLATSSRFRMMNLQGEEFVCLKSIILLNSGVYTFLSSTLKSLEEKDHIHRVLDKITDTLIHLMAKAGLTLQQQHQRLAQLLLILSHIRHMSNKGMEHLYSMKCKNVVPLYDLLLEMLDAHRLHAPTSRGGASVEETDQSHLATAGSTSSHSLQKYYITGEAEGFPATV

Compound | % parent molecule remaining after 2 hours at 37° C. [1, 5] | % parent molecule remaining after 2 hours at 37° C. [1, 6] | % parent molecule remaining after 2 hours at 37° C. [1, 7] | % parent molecule remaining after 2 hours at 37° C. [1, 8] | % remaining at 60 min [3] | also measured
7-α-methylnortestosterone dodecylcarbonate [CDB-4884] | 89% | 75% | 75% | 82% |  | 
7α-t-Butyl Testosterone [CDB-4919] |  |  |  |  | 92.0% | IC50 ([2]; read-out: IC50 (nM) PR binding): 1400 nM; IC50 ([4]; fluorescence polarization, Fluormone ES2, read-out: IC50 (nM) ERα): 10400 nM
C[C@@H]1CC2=CC(=O)CC[C@@H]2[C@@H]2[C@@H]1[C@@H]1CC[C@H](O)[C@@]1(C)C[C@@H]2C [CDB-1321, dimethandrolone, reference compound] |  |  |  |  | 85.3% | 
C[C@@H]1CC2=CC(=O)CCC2C2C1C1CC[C@H](OC(=O)CCC(=O)O[C@H]3CCC4C5C(C6CCC(=O)C=C6C[C@H]5C)[C@@H](C)C[C@@]43C)[C@@]1(C)C[C@@H]2C (some centres unmarked) [CDB-4866] |  |  |  |  |  | AUC (Ventral Prostate) (castrated weanling rats): 1464 mg*week; duration of levator ani muscle weight increase (anabolic effects) (castrated weanling rats): sustained until Day 99 (Week 14); duration of ventral prostate weight increase (androgenic effects) (castrated weanling rats): sustained until Day 99 (Week 14); ventral prostate gland weights relative to vehicle (castrated weanling rats): increased
C[C@]12CCC(=O)C=C1CCC1C2CC[C@@]2(C)C1CC[C@@H]2OC(=O)CCC(=O)O[C@H]1CCC2C3CCC4=CC(=O)CC[C@]4(C)C3CC[C@@]21C (some centres unmarked) [CDB-4877] |  |  |  |  |  | AUC (Levator ani muscle) (castrated weanling rats): 2173 mg*week; AUC (Ventral Prostate) (castrated weanling rats): 524.4 mg*week; duration of ventral prostate weight increase (androgenic effects) (castrated weanling rats): sustained until Day 99 (Week 14); ventral prostate gland weights relative to vehicle (castrated weanling rats): increased
C#C[C@]1(OC(=O)CCCCCCCCCCC)CCC2C3CCC4=CC(=O)CCC4C3CC[C@@]21CC (some centres unmarked) [CDB-4880] | 78% | 86% | 54% | 76% |  | 
CCCCCCCCCCCCOC(=O)O[C@H]1CCC2C3CCC4=CC(=O)CC[C@]4(C)C3CC[C@@]21C (some centres unmarked) [CDB-4883, testosterone dodecylcarbonate] | 74% | 84% | 64% | 85% |  | 
C[C@@H]1CC2=CC(=O)CC[C@@H]2C2C1C1CC[C@H](OC(=O)CCNC(=O)CCC(=O)O[C@H]3CCC4C5C([C@@H](C)C[C@@]43C)[C@H]3CCC(=O)C=C3C[C@H]5C)[C@@]1(C)C[C@@H]2C (some centres unmarked) [CDB-4886] |  |  |  |  |  | duration of levator ani muscle weight increase (anabolic effects) (castrated weanling rats): sustained until Day 99 (Week 14)
C#C[C@]1(OC(=O)OC(C)(C)C)CCC2C3CCC4=CC(=O)CCC4C3CC[C@@]21CC (some centres unmarked) [CDB-4889] | 100≤ % | 100≤ % | 12% | 56% |  | 
CCCCCCCCCCCCOC(=O)O[C@H]1CCC2C3CCC4=CC(=O)CCC4=C3[C@@H](C)C[C@@]21C (some centres unmarked) [CDB-4892] | 88% | 77% | 75% | 82% |  | 
CC1CC2=CC(=O)CCC2(C)C2CCC3(C)C(O)CCC3C12 (stereo not drawn) [CDB-4911, 7β-methyl testosterone] |  |  |  |  | 3.4% | IC50 ([2]; read-out: IC50 (nM) PR binding): 415 nM; % remaining at 15 min [3]: 62.3%; % remaining at 30 min [3]: 33.5%
CC[C@@H]1CC2=CC(=O)CC[C@]2(C)C2CC[C@@]3(C)C(CC[C@@H]3O)C21 (stereo partly drawn) [CDB-4918, 7α-ethyl testosterone] |  |  |  |  | 0.1% | IC50 ([2]; IC50 (nM) PR binding): 672 nM; % remaining at 15 min [3]: 33.0%; % remaining at 30 min [3]: 0.2%; IC50 [4]: 10500 nM
CC12CCC(=O)C=C1CC(c1ccccc1)C1C2CCC2(C)C(O)CCC12 (stereo not drawn) [CDB-4920, 7α-Phenyl Testosterone] |  |  |  |  | 63.6% | IC50 ([2]; IC50 (nM) PR binding): 463 nM; IC50 [4]: 13500 nM
CC12CCC(=O)C=C1CC(c1ccccc1)C1C2CCC2(C)C(O)CCC12 (stereo not drawn) [CDB-4921, 7β-Phenyl Testosterone] |  |  |  |  | 62.5% | IC50 ([2]; read-out: IC50 (nM) PR binding): 787 nM
CCC1CC2=CC(=O)CCC2(C)C2CCC3(C)C(O)CCC3C12 (stereo not drawn) [CDB-4924, 7β-ethyl testosterone] |  |  |  |  | 0.3% | IC50 ([2]; read-out: IC50 (nM) PR binding): 842 nM; % remaining at 15 min [3]: 58.2%; % remaining at 30 min [3]: 25.4%
DMA linolate [CDB-4895] | 51% | 62% | 55% | 60% |  | 
DMA oleate [CDB-4893] | 60% | 55% | 54% | 51% |  | 
